Measurements reported in ChEMBL document CHEMBL1201862, “PubChem BioAssay data set” (2004).
Calls of active or inactive are those of the source.

Key:
[1] = target: T1, Aminopeptidase N (Plasmodium falciparum FcB1/Columbia, UniProt O96935); assay: malaria alanyl aminopeptidase activity blockers – biochemical, fluorogenic H-Leu-NHMec substrate, 1536-well (AID 1445); set-up: species or system Plasmodium falciparum 3D7, 3D7
T1 sequence (O96935 whole entry): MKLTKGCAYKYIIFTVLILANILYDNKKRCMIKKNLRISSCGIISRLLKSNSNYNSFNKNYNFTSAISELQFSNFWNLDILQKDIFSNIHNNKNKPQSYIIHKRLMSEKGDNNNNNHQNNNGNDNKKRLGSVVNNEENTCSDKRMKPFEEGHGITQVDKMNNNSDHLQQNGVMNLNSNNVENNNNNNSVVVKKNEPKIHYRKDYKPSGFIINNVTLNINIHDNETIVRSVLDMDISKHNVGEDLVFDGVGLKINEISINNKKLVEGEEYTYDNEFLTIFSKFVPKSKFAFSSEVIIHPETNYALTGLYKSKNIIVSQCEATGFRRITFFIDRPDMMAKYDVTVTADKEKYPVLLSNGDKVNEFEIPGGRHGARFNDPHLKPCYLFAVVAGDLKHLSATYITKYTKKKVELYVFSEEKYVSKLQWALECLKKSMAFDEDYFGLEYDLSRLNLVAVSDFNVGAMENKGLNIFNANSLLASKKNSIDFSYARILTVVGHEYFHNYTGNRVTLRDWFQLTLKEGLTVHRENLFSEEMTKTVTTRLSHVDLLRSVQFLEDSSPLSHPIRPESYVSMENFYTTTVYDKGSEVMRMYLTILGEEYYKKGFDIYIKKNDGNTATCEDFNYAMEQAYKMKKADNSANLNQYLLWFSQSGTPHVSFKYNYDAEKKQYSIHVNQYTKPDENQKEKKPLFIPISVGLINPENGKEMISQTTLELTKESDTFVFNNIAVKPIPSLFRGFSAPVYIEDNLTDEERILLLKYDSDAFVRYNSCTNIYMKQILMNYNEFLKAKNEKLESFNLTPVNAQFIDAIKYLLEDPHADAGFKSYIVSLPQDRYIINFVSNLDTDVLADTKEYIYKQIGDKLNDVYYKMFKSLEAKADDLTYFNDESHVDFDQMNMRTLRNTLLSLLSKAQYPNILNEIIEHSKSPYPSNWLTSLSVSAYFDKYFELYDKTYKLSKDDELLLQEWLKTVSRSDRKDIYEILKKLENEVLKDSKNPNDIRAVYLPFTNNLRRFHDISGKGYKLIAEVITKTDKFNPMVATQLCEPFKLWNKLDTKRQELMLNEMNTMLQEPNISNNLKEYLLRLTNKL

[2] = target: Galanin receptor type 2 (Homo sapiens, UniProt O43603); assay: Dose Response cell-based high-throughput screening assay to identify agonists of galanin receptor 2 (GALR2). [Related pubchem assays: 864 ]; assay type: functional
[3] = target: T2, Short transient receptor potential channel 4 (Mus musculus, UniProt Q9QUQ5); assay: calcium entry via TRPC4 opening agents – cell-based, HEK293 TRPC4/mu-opioid, Fluo-4 calcium, dose response (AID 434937); assay type: functional
T2 sequence (Q9QUQ5 whole entry): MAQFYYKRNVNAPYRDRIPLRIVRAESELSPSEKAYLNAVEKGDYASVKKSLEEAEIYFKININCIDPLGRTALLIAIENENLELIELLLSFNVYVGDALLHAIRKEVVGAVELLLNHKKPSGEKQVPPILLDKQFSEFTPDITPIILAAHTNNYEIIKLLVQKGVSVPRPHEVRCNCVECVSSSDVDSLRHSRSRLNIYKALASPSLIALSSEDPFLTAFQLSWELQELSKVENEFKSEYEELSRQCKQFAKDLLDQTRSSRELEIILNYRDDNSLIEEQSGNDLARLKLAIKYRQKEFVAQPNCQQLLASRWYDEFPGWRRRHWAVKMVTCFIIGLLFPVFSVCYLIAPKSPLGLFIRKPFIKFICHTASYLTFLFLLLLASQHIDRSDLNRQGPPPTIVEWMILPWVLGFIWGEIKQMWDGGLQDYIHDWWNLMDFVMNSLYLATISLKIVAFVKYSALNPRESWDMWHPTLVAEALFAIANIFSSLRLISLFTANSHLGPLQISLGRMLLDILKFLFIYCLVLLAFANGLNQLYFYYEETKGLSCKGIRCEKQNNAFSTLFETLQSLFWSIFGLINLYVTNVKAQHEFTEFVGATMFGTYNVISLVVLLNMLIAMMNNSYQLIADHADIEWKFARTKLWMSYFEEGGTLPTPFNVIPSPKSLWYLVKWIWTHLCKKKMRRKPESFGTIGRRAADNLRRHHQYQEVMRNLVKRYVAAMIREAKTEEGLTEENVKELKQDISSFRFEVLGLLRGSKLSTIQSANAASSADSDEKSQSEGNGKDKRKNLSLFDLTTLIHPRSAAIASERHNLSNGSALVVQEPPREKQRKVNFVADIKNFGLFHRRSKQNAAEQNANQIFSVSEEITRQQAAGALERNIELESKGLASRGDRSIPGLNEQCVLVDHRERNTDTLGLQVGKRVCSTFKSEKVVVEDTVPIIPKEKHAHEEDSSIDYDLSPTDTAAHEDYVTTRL

[4] = target: Delta-type opioid receptor (Homo sapiens, UniProt P41143); assay: Counterscreen for agonists of heterodimerization of the mu 1 (OPRM1) and delta 1 (OPRD1) opioid receptors: Luminescence-based cell-based high throughput dose response assay to identify agonists of OPRD1 homodimerization. [Related pubchem assays (depositor defined):AID504326, AID504355, AID504692, AID504904, AID504905]; assay type: functional
[5] = target: Mu-type opioid receptor (Homo sapiens, UniProt P35372); assay: Counterscreen for agonists of heterodimerization of the mu 1 (OPRM1) and delta 1 (OPRD1) opioid receptors: Luminescence-based cell-based high throughput dose response assay to identify agonists of OPRM1 homodimerization.; assay type: functional;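 note: U2OS cells expressing OPRM1 and beta-arrestin as split beta-galactosidase partners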
[6] = target: 5-hydroxytryptamine receptor 5A (Homo sapiens, UniProt P47898); assay: Counterscreen for agonists of OPRM1-OPRD1 heterodimerization: luminescence-based cell-based high throughput dose response assay to identify agonists of 5-hydroxytryptamine (serotonin) 5A receptor (HTR5A). [Related pubchem assays (depositor defined):AID504326, AID504355, AID504692, AID504904, AID504905]; assay type: functional
[7] = tested on: Vero; assay: cells; assay type: functional; conditions: Chlorocebus sabaeus
[8] = target: T3, DNA repair protein RAD52 homolog (Homo sapiens, UniProt P43351); assay type: functional, biochemical
T3 sequence (P43351 whole entry): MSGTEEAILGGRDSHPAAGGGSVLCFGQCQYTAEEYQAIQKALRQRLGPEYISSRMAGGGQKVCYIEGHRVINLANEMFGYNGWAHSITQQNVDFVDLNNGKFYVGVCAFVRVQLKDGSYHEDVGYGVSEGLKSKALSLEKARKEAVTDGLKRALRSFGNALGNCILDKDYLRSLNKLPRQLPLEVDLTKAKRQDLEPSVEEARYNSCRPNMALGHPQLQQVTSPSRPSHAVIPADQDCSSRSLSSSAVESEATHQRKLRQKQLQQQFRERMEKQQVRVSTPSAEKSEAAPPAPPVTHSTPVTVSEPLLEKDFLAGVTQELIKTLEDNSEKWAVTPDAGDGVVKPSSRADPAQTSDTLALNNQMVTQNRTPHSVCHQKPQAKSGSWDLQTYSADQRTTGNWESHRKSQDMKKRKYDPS

[9] = tested on: Vero; assay: mammalian cell viability reduction – secondary assay, cytotoxicity control for West Nile virus antiviral project, dose response (AID 1650); assay type: functional; conditions: Chlorocebus sabaeus
[10] = Trypanosoma cruzi growth suppression in host cells – NIH3T3 host cells, beta-gal luminescence, confirmation (AID 2044); assay type: functional, cell-based;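 note: intracellular parasites grown in NIH/3T3 mouse fibroblasts as host cells; luminescent beta-galactosidase reporter signal from transgenic T. cruzi replicating inside host cells; inhibitors lower the luminescence signal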
[11] = viability of PTEN-deleted HCT116 cells – cell-based, HCT116 PTEN knockout, dose response (AID 1047); assay type: functional;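 note: HCT116 colon tumor cells with PTEN knocked out; cells exposed to compound for 60 hours before readout; potency for loss of cell viability measured by luminescence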
[12] = NIH3T3 cell viability loss – ATP luminescence, mouse fibroblasts, counter-screen, dose response (AID 2010); assay type: functional, cell-based;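 note: cells exposed to compound for about 90 hours before reading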
[13] = viability of HCT116 lacking mutant beta-catenin – cell-based, human colon tumor, dose response (AID 1045); assay type: functional;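 note: HCT116 colon tumor cells with beta catenin knocked out; cells exposed to compound for 60 hours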
[14] = tested on: HEK293; assay: EBV LMP1 TES2 canonical NF-kB signalling blockers – cell-based, HEK293, luciferase, cherry-pick, dose response (AID 588343); assay type: functional; conditions: Homo sapiens
[15] = tested on: INS1; assay: INS-1E survival protection against cytokine death – cell-based, luminescence, retest, dose response (AID 449756); assay type: functional; conditions: Rattus norvegicus;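 note: cell death triggered by IL-1 beta plus TNF-alpha plus IFN-gamma mixture; protective hits raise ATP signal compared with cytokine alone wells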
[16] = target: Paired box protein Pax-8 (Homo sapiens, UniProt Q06710); assay: PAX8 transcriptional activity inhibition in RMG-I – RMG-I cells, luciferase, cherry-pick, dose response (AID 687027); assay type: functional, cell-based;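 note: luciferase reporter driven by Pax8 target thyroperoxidase promoter measured by SteadyGlo luminescence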
[17] = general cell-killing toxicity readout – plate reader, dry powder samples, cytotoxicity control for PAX8 inhibitor project, dose response (AID 743021); assay type: functional, cell-based
[18] = Luminescent dose response cell-based high throughput screening assay for inhibitors of the Janus kinase 2 mutant JAK2V617F. [Related pubchem assays: 1446 (Primary screen.), 1521 (Confirmation assay.), 1486 (Counter screen.)]; assay type: functional
[19] = tested on: BJ; assay: BJ-TERT fibroblast viability loss – cell-based, RAS-independent, luminescence, dose response (AID 1933); assay type: functional; conditions: Homo sapiens
[20] = cells; assay type: functional, cell-based
[21] = tested on: BJ; assay: cells; assay type: functional, cell-based; conditions: Homo sapiens
[22] = cells; assay type: functional, cell-based; remark: listed apart in the source
[23] = tested on: BJ; assay: BJ-TERT-LT-ST fibroblast viability loss – cell-based, RAS-independent, luminescence, dose response (AID 1935); assay type: functional; conditions: Homo sapiens;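 note: BJ fibroblasts immortalized with TERT plus LT and ST oncogenes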
[24] = DRD fibroblast viability loss – cell-based, non-viral oncogenic, luminescence, dose response (AID 1934); assay type: functional; conditions: Homo sapiens
[25] = target: T4, Hexokinase HKDC1 (Homo sapiens, UniProt Q2TB90); assay: inhibition of HKDC1 glucose phosphorylation – biochemical, W721R variant, dose response (AID 504729); assay type: functional
T4 sequence (Q2TB90 whole entry): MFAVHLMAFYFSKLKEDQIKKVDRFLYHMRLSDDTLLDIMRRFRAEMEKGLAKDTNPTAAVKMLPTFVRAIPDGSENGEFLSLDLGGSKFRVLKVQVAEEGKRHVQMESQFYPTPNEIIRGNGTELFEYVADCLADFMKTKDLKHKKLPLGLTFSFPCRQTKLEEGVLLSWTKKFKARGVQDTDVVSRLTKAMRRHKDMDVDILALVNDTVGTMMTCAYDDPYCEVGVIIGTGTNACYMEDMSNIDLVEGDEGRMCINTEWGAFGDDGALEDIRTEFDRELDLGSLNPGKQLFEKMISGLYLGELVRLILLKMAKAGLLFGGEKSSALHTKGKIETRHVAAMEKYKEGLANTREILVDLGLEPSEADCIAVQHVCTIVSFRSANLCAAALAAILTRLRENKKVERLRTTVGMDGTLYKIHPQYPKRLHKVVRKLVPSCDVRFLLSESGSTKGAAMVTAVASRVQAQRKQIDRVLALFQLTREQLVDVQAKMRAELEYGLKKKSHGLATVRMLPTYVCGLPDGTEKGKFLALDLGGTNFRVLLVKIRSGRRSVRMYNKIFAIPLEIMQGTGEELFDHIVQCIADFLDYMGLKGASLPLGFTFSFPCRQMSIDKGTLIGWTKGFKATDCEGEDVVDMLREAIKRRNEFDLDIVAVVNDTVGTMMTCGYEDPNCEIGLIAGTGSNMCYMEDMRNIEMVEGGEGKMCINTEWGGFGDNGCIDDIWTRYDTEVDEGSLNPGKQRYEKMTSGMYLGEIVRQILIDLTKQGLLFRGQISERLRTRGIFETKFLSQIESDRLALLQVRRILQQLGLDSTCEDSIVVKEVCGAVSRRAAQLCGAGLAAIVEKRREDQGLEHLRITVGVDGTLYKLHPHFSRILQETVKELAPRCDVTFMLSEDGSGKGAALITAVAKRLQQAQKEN

[26] = Fluorescence-based cell-based high throughput dose response assay for inhibitors of the interaction of nucleotide-binding oligomerization domain containing 2 (NOD2) and the receptor-interacting serine-threonine kinase 2 (RIPK2).; assay type: functional; conditions: Homo sapiens
[27] = target: Protein-tyrosine kinase 2-beta (Homo sapiens, UniProt Q14289);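 note: potency of inhibitors of PYK2 kinase phosphorylation of poly-GT substrate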
Sequence of Protein-tyrosine kinase 2-beta (Q14289 whole entry): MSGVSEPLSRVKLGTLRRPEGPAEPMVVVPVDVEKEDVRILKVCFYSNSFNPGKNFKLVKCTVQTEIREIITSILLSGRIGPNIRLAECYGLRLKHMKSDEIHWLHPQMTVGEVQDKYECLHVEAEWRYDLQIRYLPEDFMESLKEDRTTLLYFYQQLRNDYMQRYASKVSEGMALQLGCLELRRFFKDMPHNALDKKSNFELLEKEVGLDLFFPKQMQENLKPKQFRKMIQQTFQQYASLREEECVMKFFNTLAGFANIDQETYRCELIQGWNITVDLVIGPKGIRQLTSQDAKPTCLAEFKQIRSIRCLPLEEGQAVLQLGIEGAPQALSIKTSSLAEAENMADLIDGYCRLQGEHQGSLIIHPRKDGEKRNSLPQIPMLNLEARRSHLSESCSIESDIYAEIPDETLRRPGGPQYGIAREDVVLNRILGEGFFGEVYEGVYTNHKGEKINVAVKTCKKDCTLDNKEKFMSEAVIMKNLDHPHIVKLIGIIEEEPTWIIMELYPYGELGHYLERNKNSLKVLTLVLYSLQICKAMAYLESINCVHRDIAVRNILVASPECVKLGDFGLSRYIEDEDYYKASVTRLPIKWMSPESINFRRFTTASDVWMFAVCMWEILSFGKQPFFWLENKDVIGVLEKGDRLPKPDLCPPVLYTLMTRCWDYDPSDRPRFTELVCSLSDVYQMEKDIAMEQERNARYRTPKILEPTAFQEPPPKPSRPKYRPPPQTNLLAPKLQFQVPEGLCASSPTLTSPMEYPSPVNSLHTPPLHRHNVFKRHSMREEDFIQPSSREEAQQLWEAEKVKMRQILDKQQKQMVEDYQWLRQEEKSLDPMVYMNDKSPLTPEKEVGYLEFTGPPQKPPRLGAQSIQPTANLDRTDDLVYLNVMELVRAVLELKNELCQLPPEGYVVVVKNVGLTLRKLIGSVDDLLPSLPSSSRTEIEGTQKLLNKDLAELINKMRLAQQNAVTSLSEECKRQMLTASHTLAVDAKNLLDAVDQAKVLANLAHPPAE

Sequence of Paired box protein Pax-8 (Q06710 whole entry): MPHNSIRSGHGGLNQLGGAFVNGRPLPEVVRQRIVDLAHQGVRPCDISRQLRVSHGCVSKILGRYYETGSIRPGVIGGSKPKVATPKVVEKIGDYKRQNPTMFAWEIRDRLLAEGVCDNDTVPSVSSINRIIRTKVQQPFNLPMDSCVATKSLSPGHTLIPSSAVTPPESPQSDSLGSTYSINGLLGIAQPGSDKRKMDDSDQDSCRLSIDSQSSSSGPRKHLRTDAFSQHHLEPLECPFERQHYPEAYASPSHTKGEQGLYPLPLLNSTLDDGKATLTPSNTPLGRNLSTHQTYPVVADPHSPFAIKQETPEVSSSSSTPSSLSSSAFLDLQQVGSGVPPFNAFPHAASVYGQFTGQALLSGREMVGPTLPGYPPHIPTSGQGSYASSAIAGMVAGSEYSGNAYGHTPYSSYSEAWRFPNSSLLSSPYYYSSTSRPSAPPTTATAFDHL
Sequence of Mu-type opioid receptor (P35372 whole entry): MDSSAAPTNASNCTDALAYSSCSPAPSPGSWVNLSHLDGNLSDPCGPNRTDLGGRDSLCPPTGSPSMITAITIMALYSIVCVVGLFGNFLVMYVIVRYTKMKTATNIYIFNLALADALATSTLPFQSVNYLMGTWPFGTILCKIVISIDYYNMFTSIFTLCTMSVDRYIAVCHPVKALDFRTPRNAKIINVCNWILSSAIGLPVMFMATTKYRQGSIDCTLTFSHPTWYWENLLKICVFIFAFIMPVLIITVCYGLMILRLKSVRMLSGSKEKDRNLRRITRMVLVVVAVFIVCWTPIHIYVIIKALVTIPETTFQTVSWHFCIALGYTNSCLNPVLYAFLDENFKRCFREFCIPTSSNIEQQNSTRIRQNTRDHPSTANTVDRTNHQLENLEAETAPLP
Sequence of Galanin receptor type 2 (O43603 whole entry): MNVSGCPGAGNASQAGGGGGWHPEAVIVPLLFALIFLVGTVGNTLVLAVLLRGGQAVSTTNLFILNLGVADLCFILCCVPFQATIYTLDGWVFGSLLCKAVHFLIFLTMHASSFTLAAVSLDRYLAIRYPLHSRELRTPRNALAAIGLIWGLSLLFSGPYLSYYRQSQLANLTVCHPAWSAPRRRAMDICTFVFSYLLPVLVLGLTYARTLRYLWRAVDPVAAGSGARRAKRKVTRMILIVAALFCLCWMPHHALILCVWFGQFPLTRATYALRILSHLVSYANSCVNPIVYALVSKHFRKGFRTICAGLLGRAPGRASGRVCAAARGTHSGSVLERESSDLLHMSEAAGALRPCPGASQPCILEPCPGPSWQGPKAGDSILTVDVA
Sequence of Delta-type opioid receptor (P41143 whole entry): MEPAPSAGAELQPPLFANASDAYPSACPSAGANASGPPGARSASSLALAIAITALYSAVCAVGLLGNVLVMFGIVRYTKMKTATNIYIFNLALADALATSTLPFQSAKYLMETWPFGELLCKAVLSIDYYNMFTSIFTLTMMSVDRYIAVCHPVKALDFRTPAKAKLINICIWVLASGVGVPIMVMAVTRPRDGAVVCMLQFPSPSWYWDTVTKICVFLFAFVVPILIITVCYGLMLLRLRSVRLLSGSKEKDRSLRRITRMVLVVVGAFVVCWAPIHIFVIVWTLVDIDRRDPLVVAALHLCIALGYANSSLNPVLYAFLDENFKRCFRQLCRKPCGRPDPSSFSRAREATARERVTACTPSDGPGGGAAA
Sequence of 5-hydroxytryptamine receptor 5A (P47898 whole entry): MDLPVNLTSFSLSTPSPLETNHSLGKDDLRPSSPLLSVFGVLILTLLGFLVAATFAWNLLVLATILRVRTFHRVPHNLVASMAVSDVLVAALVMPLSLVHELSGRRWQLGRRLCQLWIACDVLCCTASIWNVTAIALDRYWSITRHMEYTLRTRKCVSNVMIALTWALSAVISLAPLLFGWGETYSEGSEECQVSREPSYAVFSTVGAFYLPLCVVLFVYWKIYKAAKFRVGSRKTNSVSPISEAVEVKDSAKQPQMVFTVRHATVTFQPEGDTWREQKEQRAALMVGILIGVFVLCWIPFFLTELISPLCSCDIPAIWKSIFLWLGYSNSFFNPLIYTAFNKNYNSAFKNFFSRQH

COc1cc2c3cc1Oc1cc(ccc1O)C[C@@H]1c4c(cc(OC)c(O)c4Oc4ccc(cc4)C[C@H]3N(C)CC2)CCN1C
IC50 [1]: 15.2 µM (active)
EC50 [2]: > 55.7 µM (not active)
EC50 [3]: 1.33 µM (active)
EC50 [4]: 44.2 µM (inactive)
EC50 [5]: > 92.4 µM (inactive)
EC50 [6]: 79.2 µM (inactive)
CC50 [7]: 24.6 µM (active)
AC50 [8]: 35.2 µM (active)

CCN(CC)S(=O)(=O)c1cc([N+](=O)[O-])ccc1NNC(=O)Nc1ccc(Cl)c(Cl)c1
CC50 [9]: 14.3 µM (active)
EC50 [10]: 2.03 µM (active)
EC50 [11]: 8.3 µM (active)
EC50 [12]: > 60 µM (not active)
EC50 [13]: 7.99 µM (active)
AC50 [14]: 22.9 µM (active)
AC50 [15]: 6.79 µM (active)
AC50 [16]: 8.91 µM (active)
AC50 [17]: 3.73 µM (active)

Cc1nc([N+](=O)[O-])c(Br)n1Cc1ccc(Cl)c(Cl)c1
IC50 [18]: 0.542 µM (active)
EC50 [19]: 9.74 µM (inconclusive)
EC50 [20]: > 350 µM (not active)
EC50 [21]: > 150 µM (not active)
EC50 [22]: > 350 µM (not active)
EC50 [23]: > 150 µM (inconclusive)
EC50 [24]: 9.66 µM (inconclusive)
IC50 [25]: 22.8 µM (inactive)
CC50 [7]: 17.5 µM (active)
IC50 [26]: 4.39 µM (active)

Cc1n[nH]c(NC=C2C(=O)CC(C)(C)CC2=O)c1-c1ccccc1
IC50 [27]: 21 µM (not active)
